# Assay results published in patent US5780245A, “Polypeptides having a serotonin receptor activity, nucleic acids coding for these polypeptides and uses” (priority 1992, dated 1998).
# B1: truncated protein: receptor having only the first three transmembrane domains, residues 1 to 177 SEQ ID No. 2 plus 14 C-terminal amino acids (protein)
# chain: MASSYKMSEQSTTSEHILQKTCDHLILTNRSGLETDSVAEEMKQTVEGQGHTVHWAALLILAVIIPTIGGNILVILAVALEKRLQYATNYFLMSLAIADLLVGLFVMPIALLTIMFEAIWPLPLALCPAWLFLDVLFSTASIMHLCAISLDRYIAIKKPIQANQCNTRATAFIKITV
# modifications: plus 14 C-terminal amino acids
# Tested on: coronary arteries
# Experiment: not given
# Settings: human coronary atherosclerosis; Golino et al.; cited from earlier work
row,Molecule,increased sensitivity to serotonin of the contraction of the coronary arteries
1,O=C(c1ccc(F)cc1)C1CCN(CCn2c(=O)[nH]c3ccccc3c2=O)CC1 [Ketanserin],can be reduced by ketanserin

# Molecular target: 5-HT2 (Homo sapiens, UniProt P28223)
# Sequence (P28223 whole entry, species assumed): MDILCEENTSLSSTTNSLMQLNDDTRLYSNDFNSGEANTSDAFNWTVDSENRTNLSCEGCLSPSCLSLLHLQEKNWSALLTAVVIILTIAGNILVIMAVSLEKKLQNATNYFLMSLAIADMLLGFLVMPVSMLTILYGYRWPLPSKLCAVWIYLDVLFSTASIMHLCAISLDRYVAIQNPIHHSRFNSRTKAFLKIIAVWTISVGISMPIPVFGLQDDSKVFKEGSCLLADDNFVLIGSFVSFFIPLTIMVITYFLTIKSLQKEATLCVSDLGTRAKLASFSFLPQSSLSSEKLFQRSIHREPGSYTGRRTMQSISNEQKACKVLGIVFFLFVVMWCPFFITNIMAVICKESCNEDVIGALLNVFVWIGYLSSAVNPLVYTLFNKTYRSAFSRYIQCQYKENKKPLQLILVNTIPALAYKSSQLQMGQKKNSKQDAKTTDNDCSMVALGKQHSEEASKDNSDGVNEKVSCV
# Experiment: binding to 5-HT2 (Table 1 comparison)
# Settings: not given
row,Molecule,Kd
1,CCCN(CCC)C1CCc2cccc(O)c2C1 (stereo not shown) [8-OH-DPAT],10 µM
2,NCCc1c[nH]cn1 [Histamine],> 100 µM
3,CN1[C@@H]2CC[C@H]1C[C@@H](OC(=O)c1cc(Cl)cc(Cl)c1)C2 [MDL 72222],0.2 µM
4,CC(=O)NCCc1c[nH]c2ccc(O)cc12 [N-Acetyl-5-HT],3.16 µM
5,c1ccc2nc(N3CCNCC3)ccc2c1 [Quipazine],0.631 µM
6,Cc1nc2n(c(=O)c1CCN1CCC(C(=O)c3ccc(F)cc3)CC1)CCS2 [Setoperone],0.00251 µM

# Same assay, conditions: Table 1 comparison column; source of values not stated
row,Molecule,Kd
1,Cn1cc(CCN)c2cc(O)ccc21 [1-ME-5-HT],0.501 µM
2,Cc1[nH]c2ccc(O)cc2c1CCN [2-Me-5-HT],6.31 µM

# Molecular target: T1, 5HT2C receptor (Mus musculus, UniProt Q02152)
# T1 construct: expressed in transfected cells; host or cells: Cos-7
# T1 sequence (Q02152 whole entry S167T/A227V/S449C): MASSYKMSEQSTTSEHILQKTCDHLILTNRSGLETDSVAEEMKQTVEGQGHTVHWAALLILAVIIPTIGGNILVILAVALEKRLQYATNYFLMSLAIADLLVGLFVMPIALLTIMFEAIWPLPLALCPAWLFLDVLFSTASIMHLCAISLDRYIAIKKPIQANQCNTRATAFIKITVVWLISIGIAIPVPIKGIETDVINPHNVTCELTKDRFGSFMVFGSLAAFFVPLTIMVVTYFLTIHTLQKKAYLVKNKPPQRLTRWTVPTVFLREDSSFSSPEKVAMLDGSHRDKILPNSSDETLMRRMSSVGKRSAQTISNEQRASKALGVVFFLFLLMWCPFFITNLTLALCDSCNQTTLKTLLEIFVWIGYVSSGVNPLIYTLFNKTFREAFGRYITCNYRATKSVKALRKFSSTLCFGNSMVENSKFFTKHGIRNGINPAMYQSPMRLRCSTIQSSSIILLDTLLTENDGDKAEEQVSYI
# Experiment: saturation binding of [^125 I]DOI to membranes of Cos-7 cells expressing the 5HT2C receptor
# Settings: [^125 I]DOI
# Protocol: FIG. 1 Scatchard curve of the results of experiments for the binding, at saturation, of [^125 I]DOI to the membranes of Cos-7 cells expressing the 5HT2C receptor.
# The cDNA fragment isolated in Example 1 was inserted into an eukaryotic expression vector, which was used to transfect Cos-7 cells. The membranes of the transfected cells obtained were then prepared and tested for their capacity to bind certain labelled serotoninergic ligands.
# The cDNA encoding the 5HT2C receptor was isolated in the form of a 1372 pb XbaI-EcoRI fragment and then inserted at the corresponding sites of the vector p513. The vector p513 is derived from the vector pSG5 [Green et al., Nucl. Acids Res. 16 (1988) 369] by addition of a multiple cloning site. The recombinant vector thus obtained, designated p513NP75, was then used (10 μg per 10 cm dish) to transfect the Cos-7 cells in the presence of calcium phosphate.
# 48 Hours after transfection, the recombinant cells are harvested and the membranes are prepared according to the technique described by Amlaiky and Caron [J. Biol. Chem. 260 (1985) 1983].
# Saturation binding and competition experiments were then carried out on these membranes in the presence of [^125 I]DOI (2200 Ci/mmol; New England Nuclear) and various test compounds.
# (§1) The [^125 I]DOI (dimethoxyphenyl isopropylamine) was first used alone, in order to detect the expression of the gene encoding the receptors of the invention in the membranes of the recombinant cells. For this purpose, 100 μl of membrane suspension ([…]) of proteins) were incubated for 30 minutes at 30° C. in the presence of the radioactive ligand (50 μl) and 50 μl of 50 mM Tris-HCl buffer (pH 7.4), 150 mM NaCl, 10 mm MgCl2, final volume: 200 μl. The reaction is then stopped by addition of an isoosmotic ice-cold solution, then by filtration on Whatman GF/B filters, followed by 4 rinses in 5 ml of the above ice-cold buffer. The filters are then dried and the radioactivity is measured by counting (γ counter). Non-specific binding, determined in the presence of 10 μM of cold DOI, represented about 30% of the total binding.
row,Molecule,specific binding to the membranes of the transfected cells
1,"COc1cc(CC(C)N)c(OC)cc1I (stereo not shown) [DOI, dimethoxyphenyl isopropylamine]",binds specifically to the membranes of the transfected cells

# Same assay, conditions: [^125 I]DOI saturation binding, 30 minutes at 30° C., pH 7.4; read-out: apparent KD
row,Molecule,Kd
1,"COc1cc(CC(C)N)c(OC)cc1I (stereo not shown) [DOI, dimethoxyphenyl isopropylamine]",0.0258 ± 0.00054 µM

# Same assay, conditions: [^125 I]DOI saturation binding, FIG. 1
row,Molecule,affinity for the transfected cells
1,"COc1cc(CC(C)N)c(OC)cc1I (stereo not shown) [DOI, dimethoxyphenyl isopropylamine]",high and the binding is saturable

# Same assay, conditions: in the presence of 10 μM of cold DOI
row,Molecule,non-specific binding (of the total binding)
1,"COc1cc(CC(C)N)c(OC)cc1I (stereo not shown) [DOI, dimethoxyphenyl isopropylamine]",about 30%

# Molecular target: whole (N) 5HT2C receptor (Mus musculus, UniProt Q02152)
# Sequence (Q02152 whole entry S167T/A227V/S449C): as above
# Experiment: biochemical
# Format: binding
# Settings: not given
row,Molecule,Kd
1,Cn1cc(CCN)c2cc(O)ccc21 [1-ME-5-HT],2.51 µM
2,Cc1[nH]c2ccc(O)cc2c1CCN [2-Me-5-HT],6.61 µM
3,CCCN(CCC)C1CCc2cccc(O)c2C1 (stereo not shown) [8-OH-DPAT],6.46 µM
4,CC[C@@H](CO)NC(=O)[C@@H]1C=C2c3cccc4c3c(cn4C)C[C@H]2N(C)C1 [Methysergide],0.0126 µM
5,CC(=O)NCCc1c[nH]c2ccc(O)cc12 [N-Acetyl-5-HT],0.00708 µM
6,COc1ccc2[nH]cc(CCN(C)C)c2c1 [NNdiMe-5-MeOT],7.41 µM
7,NCCc1c[nH]c2ccccc12 [Tryptamine],0.2 µM

# Same assay, conditions: [^125 I]DOI displacement, Cos-7 membranes, whole receptor; at least three experiments in triplicate; read-out: pKD, binding to the COS N cells (converted)
row,Molecule,Kd
1,CN(C)CCCN1c2ccccc2Sc2ccc(Cl)cc21 [Chlorpromazine],> 100 µM
2,NCCc1c[nH]cn1 [Histamine],> 100 µM
3,O=C(c1ccc(F)cc1)C1CCN(CCn2c(=O)[nH]c3ccccc3c2=O)CC1 [Ketanserin],0.204 µM
4,CN1[C@@H]2CC[C@H]1C[C@@H](OC(=O)c1cc(Cl)cc(Cl)c1)C2 [MDL 72222],24 µM
5,c1ccc2nc(N3CCNCC3)ccc2c1 [Quipazine],6.61 µM
6,Cc1nc2n(c(=O)c1CCN1CCC(C(=O)c3ccc(F)cc3)CC1)CCS2 [Setoperone],0.0245 µM
7,O=C(CCCN1CCC2(CC1)C(=O)NCN2c1ccccc1)c1ccc(F)cc1 [Spiperone],0.0501 µM

# Same assay, conditions: displacement of [^125 I]DOI, whole receptor
Molecule,order of efficacy of displacement,competition
CCCN(CCC)C1CCc2cccc(O)c2C1 (stereo not shown) [8-OH-DPAT],ritanserin>N-acetyl 5-HT>methysergide>setoperone=cyproheptadine>spiperone>ketanserin>tryptamine>5-HT >8-OH-DPAT,–
CN1C2CCC1CC(OC(=O)c1c[nH]c3ccccc13)C2 (stereo not shown) [ICS 205-930],–,absence of competition
O=C(c1ccc(F)cc1)C1CCN(CCn2c(=O)[nH]c3ccccc3c2=O)CC1 [Ketanserin],ritanserin>N-acetyl 5-HT>methysergide>setoperone=cyproheptadine>spiperone>ketanserin>tryptamine>5-HT >8-OH-DPAT,–
CN1[C@@H]2CC[C@H]1C[C@@H](OC(=O)c1cc(Cl)cc(Cl)c1)C2 [MDL 72222],–,absence of competition
CC[C@@H](CO)NC(=O)[C@@H]1C=C2c3cccc4c3c(cn4C)C[C@H]2N(C)C1 [Methysergide],ritanserin>N-acetyl 5-HT>methysergide>setoperone=cyproheptadine>spiperone>ketanserin>tryptamine>5-HT >8-OH-DPAT,–
CC(=O)NCCc1c[nH]c2ccc(O)cc12 [N-Acetyl-5-HT],ritanserin>N-acetyl 5-HT>methysergide>setoperone=cyproheptadine>spiperone>ketanserin>tryptamine>5-HT >8-OH-DPAT,–
c1ccc2nc(N3CCNCC3)ccc2c1 [Quipazine],–,absence of competition
Cc1nc2sccn2c(=O)c1CCN1CCC(=C(c2ccc(F)cc2)c2ccc(F)cc2)CC1 [Ritanserin],ritanserin>N-acetyl 5-HT>methysergide>setoperone=cyproheptadine>spiperone>ketanserin>tryptamine>5-HT >8-OH-DPAT,–
Cc1nc2n(c(=O)c1CCN1CCC(C(=O)c3ccc(F)cc3)CC1)CCS2 [Setoperone],ritanserin>N-acetyl 5-HT>methysergide>setoperone=cyproheptadine>spiperone>ketanserin>tryptamine>5-HT >8-OH-DPAT,–
O=C(CCCN1CCC2(CC1)C(=O)NCN2c1ccccc1)c1ccc(F)cc1 [Spiperone],ritanserin>N-acetyl 5-HT>methysergide>setoperone=cyproheptadine>spiperone>ketanserin>tryptamine>5-HT >8-OH-DPAT,–
NCCc1c[nH]c2ccccc12 [Tryptamine],ritanserin>N-acetyl 5-HT>methysergide>setoperone=cyproheptadine>spiperone>ketanserin>tryptamine>5-HT >8-OH-DPAT,–

# Molecular target: T2, truncated (T) 5HT2C receptor (Mus musculus, UniProt Q02152, S167T)
# T2 sequence (Q02152 with tags, fused parts or gaps S167T): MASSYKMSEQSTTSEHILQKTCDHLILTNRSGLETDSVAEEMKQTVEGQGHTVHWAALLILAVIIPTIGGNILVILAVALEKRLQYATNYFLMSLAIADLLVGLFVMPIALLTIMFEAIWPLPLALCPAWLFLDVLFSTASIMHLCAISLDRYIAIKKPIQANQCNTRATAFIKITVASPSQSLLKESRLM
# Experiment: biochemical
# Format: binding
# Settings: not given
row,Molecule,Kd
1,O=C(c1ccc(F)cc1)C1CCN(CCn2c(=O)[nH]c3ccccc3c2=O)CC1 [Ketanserin],> 100 µM

# Same assay, conditions: [^125 I]DOI displacement, COS membranes, truncated receptor; at least three experiments in triplicate; read-out: pKD, binding to the COS T (converted)
row,Molecule,Kd
1,Cn1cc(CCN)c2cc(O)ccc21 [1-ME-5-HT],60.3 µM
2,Cc1[nH]c2ccc(O)cc2c1CCN [2-Me-5-HT],> 100 µM
3,CCCN(CCC)C1CCc2cccc(O)c2C1 (stereo not shown) [8-OH-DPAT],> 100 µM
4,CN(C)CCCN1c2ccccc2Sc2ccc(Cl)cc21 [Chlorpromazine],> 100 µM
5,NCCc1c[nH]cn1 [Histamine],> 100 µM
6,CN1C2CCC1CC(OC(=O)c1c[nH]c3ccccc13)C2 (stereo not shown) [ICS 205-930],> 100 µM
7,CN1[C@@H]2CC[C@H]1C[C@@H](OC(=O)c1cc(Cl)cc(Cl)c1)C2 [MDL 72222],> 100 µM
8,CC(=O)NCCc1c[nH]c2ccc(O)cc12 [N-Acetyl-5-HT],0.2 µM
9,COc1ccc2[nH]cc(CCN(C)C)c2c1 [NNdiMe-5-MeOT],45.7 µM
10,c1ccc2nc(N3CCNCC3)ccc2c1 [Quipazine],14.1 µM
11,Cc1nc2n(c(=O)c1CCN1CCC(C(=O)c3ccc(F)cc3)CC1)CCS2 [Setoperone],> 100 µM
12,O=C(CCCN1CCC2(CC1)C(=O)NCN2c1ccccc1)c1ccc(F)cc1 [Spiperone],> 100 µM
13,NCCc1c[nH]c2ccccc12 [Tryptamine],14.5 µM

# Tested on: translation of the intracellular signal
# Experiment: translation of the intracellular signal by the truncated receptor
# Format: cell-based, mouse
# Settings: truncated protein
# Source text: The physiological role of this form of the receptor remains unknown, but it seems likely that it serves to protect certain sensitive targets, such as the vascular endothelium, from harmful stimulations by locally "diluting" the effect of the ligand, in this case serotonin.
row,Molecule,translation of the intracellular signal
1,B1,completely abolished

# Molecular target: T3, 5-HT1C (Homo sapiens, UniProt P28335)
# T3 sequence (P28335 33-458): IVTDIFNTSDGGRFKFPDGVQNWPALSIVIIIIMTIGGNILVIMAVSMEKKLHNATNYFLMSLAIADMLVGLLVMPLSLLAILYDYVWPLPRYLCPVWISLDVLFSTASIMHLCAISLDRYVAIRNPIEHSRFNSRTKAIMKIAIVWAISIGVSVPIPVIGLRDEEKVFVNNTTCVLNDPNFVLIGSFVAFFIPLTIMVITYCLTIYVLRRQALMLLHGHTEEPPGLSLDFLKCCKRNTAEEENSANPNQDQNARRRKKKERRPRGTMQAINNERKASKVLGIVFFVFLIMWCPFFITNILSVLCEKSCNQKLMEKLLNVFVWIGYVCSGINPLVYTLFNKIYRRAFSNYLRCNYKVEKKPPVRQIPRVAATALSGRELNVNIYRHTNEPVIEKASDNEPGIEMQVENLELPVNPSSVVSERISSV
# Experiment: biochemical
# Format: binding
# Settings: not given
row,Molecule,Kd
1,Cn1cc(CCN)c2cc(O)ccc21 [1-ME-5-HT],0.00398 µM
2,Cc1[nH]c2ccc(O)cc2c1CCN [2-Me-5-HT],1.58 µM
3,CN1C2CCC1CC(OC(=O)c1c[nH]c3ccccc13)C2 (stereo not shown) [ICS 205-930],25.1 µM
4,CC[C@@H](CO)NC(=O)[C@@H]1C=C2c3cccc4c3c(cn4C)C[C@H]2N(C)C1 [Methysergide],0.00251 µM
5,CC(=O)NCCc1c[nH]c2ccc(O)cc12 [N-Acetyl-5-HT],0.794 µM
6,c1ccc2nc(N3CCNCC3)ccc2c1 [Quipazine],0.2 µM
7,Cc1nc2sccn2c(=O)c1CCN1CCC(=C(c2ccc(F)cc2)c2ccc(F)cc2)CC1 [Ritanserin],0.00251 µM
8,NCCc1c[nH]c2ccccc12 [Tryptamine],0.0631 µM

# Same assay, conditions: Table 1 comparison column; source of values not stated
row,Molecule,Kd
1,CN1CCC(=C2c3ccccc3C=Cc3ccccc32)CC1 [Cyproheptadine],0.0126 µM
2,NCCc1c[nH]cn1 [Histamine],> 100 µM
3,CN1[C@@H]2CC[C@H]1C[C@@H](OC(=O)c1cc(Cl)cc(Cl)c1)C2 [MDL 72222],> 10 µM
4,Cc1nc2n(c(=O)c1CCN1CCC(C(=O)c3ccc(F)cc3)CC1)CCS2 [Setoperone],0.0501 µM
5,O=C(CCCN1CCC2(CC1)C(=O)NCN2c1ccccc1)c1ccc(F)cc1 [Spiperone],1.26 µM

# Tested on: membranes of the control cells (transfected with plasmid pSG5)
# Experiment: [^125 I]DOI binding to membranes of control cells (transfected with plasmid pSG5)
# Settings: not given
# Protocol: as §1
# These cells therefore indeed express a functional serotonin receptor.
row,Molecule,binding to membranes of the control cells
1,"COc1cc(CC(C)N)c(OC)cc1I (stereo not shown) [DOI, dimethoxyphenyl isopropylamine]",not to the membranes of the control cells
